In patent EP1075471B1, “INDOLYL DERIVATIVES AS SEROTONERGIC AGENTS” (Wyeth, priority 1998, dated 1999):
Like-named read-outs stand apart in the source and are kept apart here.

Target: T1, serotonin transporter (Rattus norvegicus, UniProt P31652)
T1 construct: frontal cortical membranes prepared from male S.D. rats; from tissue; host or cells: rat frontal cortex membranes (male Sprague-Dawley rats)
Experiment: 3H-Paroxetine binding to assess affinity for the serotonin transporter
Procedure: The affinity of drugs for the serotonin transporter was determined by assessing the ability of agents to displace specifically bound 3H-paroxetine binding from rat cortical membranes. […] Nonspecific binding was determined using fluoxetine.
^3H-Paroxetine Binding to Assess Affinity of Drugs for the Serotonin Transporter:
Briefly, frontal cortical membranes prepared from male S.D. rats were incubated with ^3H-paroxetine (0.1 nM) for 60 min at 25°C. All tubes also contained either vehicle, test compound (one to eight concentrations), or a saturating concentration of fluoxetine (10 µM) to define […]. All reactions are terminated by the addition of ice cold Tris buffer followed by rapid filtration using a Tom Tech filtration device to separate bound from free ^3H-paroxetine.

T1 sequence (P31652 whole entry): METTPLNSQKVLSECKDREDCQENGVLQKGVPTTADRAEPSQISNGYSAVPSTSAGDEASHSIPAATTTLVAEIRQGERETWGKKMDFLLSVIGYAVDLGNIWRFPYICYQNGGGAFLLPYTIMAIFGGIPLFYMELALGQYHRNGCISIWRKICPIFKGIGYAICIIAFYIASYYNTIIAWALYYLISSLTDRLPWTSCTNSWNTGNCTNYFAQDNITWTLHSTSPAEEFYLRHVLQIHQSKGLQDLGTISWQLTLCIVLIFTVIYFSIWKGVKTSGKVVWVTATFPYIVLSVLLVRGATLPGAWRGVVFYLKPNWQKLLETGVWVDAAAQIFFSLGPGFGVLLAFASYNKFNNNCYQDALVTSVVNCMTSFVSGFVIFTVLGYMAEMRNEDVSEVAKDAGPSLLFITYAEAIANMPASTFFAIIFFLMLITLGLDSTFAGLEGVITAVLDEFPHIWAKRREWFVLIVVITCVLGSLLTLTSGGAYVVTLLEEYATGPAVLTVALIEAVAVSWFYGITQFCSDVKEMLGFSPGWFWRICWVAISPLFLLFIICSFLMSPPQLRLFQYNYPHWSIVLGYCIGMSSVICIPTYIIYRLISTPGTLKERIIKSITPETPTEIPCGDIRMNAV

Compound: Cc1nc2ccccc2n1CC(O)CN1CC=C(c2c[nH]c3ccccc23)CC1 (stereo not shown) [Example 13, 1-[4-(1H-Indol-3-yl)-3,6-dihydro-2H-pyridin-1-yl]-3-(2-methyl-benzoimidazol-1-yl)-propan-2-ol]
- Ki: 0.4 nM

Compound: O[C@@H](CN1CC=C(c2c[nH]c3ccccc23)CC1)Cn1ccc2c(F)cccc21 [Example 15, (2S)-1-(4-Fluoro-indol-1-yl)-3-[4-(1H-indol-3-yl)-3,6-dihydro-2H-pyridin-1-yl]-propan-2-ol]
- Ki: 0.3 nM

Compound: COc1cccc2c1ccn2CC(O)CN1CC=C(c2c[nH]c3ccccc23)CC1 (stereo not shown) [Example 11, 1-[4-(1H-Indol-3-yl)-3,6-dihydro-2H-pyridin-1-yl]-3-(4-methoxy-indol-1-yl)-propan-2-ol]
- Ki: 0.04 nM

Compound: OC(CN1CC=C(c2c[nH]c3ccccc23)CC1)Cn1ccc2c(F)cccc21 (stereo not shown) [Example 10, 1-(4-Fluoro-indol-1-yl)-3-[4-(1H-indol-3-yl)-3,6-dihydro-2H-pyridin-1-yl]-propan-2-ol]
- Ki: 0.01 nM

Compound: OC(CN1CC=C(c2c[nH]c3ccccc23)CC1)Cn1ccc2ccccc21 (stereo not shown) [Example 12, 1-Indol-1-yl-3-[4-(1H-indol-3-yl)-3,6-dihydro-2H-pyridin-1-yl]-propan-2-ol]
- Ki (read-out: Inhibition of [3H]-Paroxetine binding Ki, compounds of formula (1), rat frontal cortical membranes, 3H-paroxetine 0.1 nM, 60 min at 25°C, nonspecific binding with fluoxetine 10 µM): 1.7 nM

Compound: COc1cccc2c1ccn2C[C@@H](O)CN1CC=C(c2c[nH]c3ccccc23)CC1 [Example 14, (2S)-1-[4-(1H-Indol-3-yl)-3,6-dihydro-2H-pyridin-1-yl]-3-(4-methoxy-indol-1-yl)-propan-2-ol]
- Ki: 0.03 nM

Compound: OC(CN1CC=C(c2c[nH]c3ccccc23)CC1)Cn1ccc2cc(F)ccc21 (stereo not shown) [Example 8, 1-(5-Fluoro-indol-1-yl)-3-[4-(1H-indol-3-yl)-3,6-dihydro-2H-pyridin-1-yl]-propan-2-ol]
- Ki: 1.4 nM
